The values below come from publication PMC5642495, “Characterization of a novel androgen receptor (AR) coregulator RIPK1 and related chemicals that suppress AR-mediated prostate cancer growth via peptide and chemical screening” (Oncotarget, 2017).

One assay addresses T1, AR-peptide interaction (Homo sapiens, UniProt P10275).
T1 construct: expressed in transfected cells; host or cells: PC-3
T1 sequence (P10275 1-920): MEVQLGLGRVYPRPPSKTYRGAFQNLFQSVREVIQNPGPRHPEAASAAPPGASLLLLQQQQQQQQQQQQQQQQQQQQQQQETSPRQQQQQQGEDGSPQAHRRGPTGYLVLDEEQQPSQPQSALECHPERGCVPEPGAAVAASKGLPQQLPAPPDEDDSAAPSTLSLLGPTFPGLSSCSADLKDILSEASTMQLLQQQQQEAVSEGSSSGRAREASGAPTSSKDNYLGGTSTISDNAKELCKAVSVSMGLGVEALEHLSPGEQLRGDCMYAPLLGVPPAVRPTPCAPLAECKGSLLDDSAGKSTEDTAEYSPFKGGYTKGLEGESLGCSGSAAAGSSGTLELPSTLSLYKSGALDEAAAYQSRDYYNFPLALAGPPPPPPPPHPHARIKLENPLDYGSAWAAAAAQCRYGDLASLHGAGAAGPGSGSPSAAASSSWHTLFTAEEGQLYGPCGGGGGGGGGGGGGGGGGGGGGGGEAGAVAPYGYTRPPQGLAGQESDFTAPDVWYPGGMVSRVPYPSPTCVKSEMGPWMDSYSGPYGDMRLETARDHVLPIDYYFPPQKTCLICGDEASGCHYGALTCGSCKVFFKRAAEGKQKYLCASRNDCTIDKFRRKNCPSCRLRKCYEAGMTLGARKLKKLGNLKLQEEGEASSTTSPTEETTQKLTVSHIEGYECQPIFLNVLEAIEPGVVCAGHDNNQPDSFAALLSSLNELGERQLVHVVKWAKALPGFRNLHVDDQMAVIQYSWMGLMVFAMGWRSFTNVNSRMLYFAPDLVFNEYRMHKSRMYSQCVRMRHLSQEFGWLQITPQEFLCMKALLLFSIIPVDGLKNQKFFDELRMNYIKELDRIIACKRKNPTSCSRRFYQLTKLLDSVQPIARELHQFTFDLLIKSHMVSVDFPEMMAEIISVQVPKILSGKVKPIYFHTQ
The assay is described as follows: AR-peptide interaction reporter assay (GAL4-DBD-3-18 / VP16-AR) in PC-3 cells. It is filed as cell-based. As to conditions: 10 nM DHT, Figure 6B. The procedure:
Figure 6 Mechanism underlying suppression of AR-related functions by oxadiazole derivatives (A–C) Transcriptional activity in reporter assays. PC-3 cells in 24-well plates were transfected as indicated below. After incubation for 16 h, cells were treated with ethanol, 10 nM DHT, or 0.01–10 μM HWC-489 or LHJ-647 for an additional 16 h. Luciferase activity in cell lysates was determined and normalized to protein concentrations. Relative luciferase activity was calculated using the luciferase reporter assay system. (A) PC-3 cells were co-transfected with 350 ng pCDNA3-flag-hAR-N (residues 1–506), 350 ng pCDNA3-hAR-C (residues 556–919), and 300 ng MMTV-Luc plasmids. (B) PC-3 cells were co-transfected with 350 ng GAL4-DBD-3-18, 350 ng pCMX-VP16-AR, and 300 ng pG5-Luc plasmids. (C) PC-3 cells were transfected with 350 ng GAL4-DBD-ARA54C, 350 ng VP16-AR, and 300 ng pG5-Luc plasmids. (D) LHJ-647 promotes AR protein degradation.

The next assay relates to AR transactivation. Briefly: AR transcriptional reporter assay in PC-3 cells. It is filed as cell-based, human. As to conditions: 10 nM DHT. As to the method:
Figure 1 Associations between RIPK1 and AR (A) Co-IP of Flag-RIPK1 with Flag-AR in the 293T cell line. Extracts of 293T cells overexpressing 3xFlag-RIPK1 and 3xFlag-AR were treated with […]. IP was performed using anti-AR (C19) or anti-RIPK1 antibody or normal rabbit serum (negative control), followed by immunoblotting (IB) with antibodies against AR or RIPK1. (B) RIPK1 interacts with full-length AR and the N- and C-terminal regions of AR in GST pull-down assays. Mutation of the FxxFY motif to AxxAA in RIPK1 reduced interactions with AR. […] (C) Transfection of PC-3 prostate cancer cells with AR and RIPK1. PC-3 cells in 24-well plates were co-transfected with 300 ng MMTV-LUC reporter plasmid and 0.5 ng SV40-Renilla luciferase plasmid, together with 100 ng pCMV-Flag-AR and 100, 300 or 500 ng p3xFLAG- RIPK1. The total plasmid DNA content was made up to 1 µg with pCMV. After 16 h, ethanol or 10 nM DHT was added and cells incubated for an additional 16 h. DHT was used as the AR ligand while ARA70N served as the positive control. Relative LUC activity was determined using the dual luciferase system. (D) RIPK1 functional domain mapping in relation to AR transactivation. PC-3 cells were transfected with pCMV-Flag-AR and RIPK1 expression plasmid, P3xFlag-RIPK1 full-length, P3xFlag-RIPK1-(240-671) or P3xflag-RIPK1-(1-558) plasmid, and cultured overnight. Ethanol or 10 nM DHT was added and cells incubated for an additional 16 h. Relative LUC activity was determined using the dual luciferase system. (E) RIPK1 is expressed in benign prostatic hyperplasia tissue, displaying strong positivity (3+, > 90%) in the gland area but weak (1+, 50%) staining in the background. (F) Human prostate cancer tissues were immunostained for RIPK1. “T” indicates the tumor area (right side) and “Non-T” the non-tumor area (left side). RIPK1 expression was weak (1+, 80%) in the cancer area but remained strong (3+, 70%) in the peri-cancer area. The figures are representative of three benign prostatic gland hyperplasia and cancer tissues.
The PC-3 prostate cancer cell line was used for experiments. […]
Background: A reporter such as luciferase makes a cellular process visible.

Molecules are shown by their SMILES.

With `Cc1ccc(-c2nnc(Nc3ccccc3)o2)cc1` [HWC-489], the “concentration range of significant suppression of AR-peptide interaction” value at AR-peptide interaction was in the range of 0.1 to 1 µM. Also, the “effect on AR transactivation in combination with enzalutamide” value in the assay with AR transactivation (1 µM enzalutamide plus 0.1 µM HWC-489 (lane 14 vs. 4)) is reported as “additive effect”.

For `COc1cccc(Nc2nnc(-c3ccc(N(C)C)cc3)o2)c1` [LHJ-647], the “concentration range of significant suppression of AR-peptide interaction” value on AR-peptide interaction was in the range of 0.1 to 1 µM. In addition, the “effect on AR transactivation in combination with enzalutamide” value in the assay with AR transactivation (1 µM enzalutamide plus 1 µM LHJ-647 (lane 9 vs. 4)) is listed as “additive effect”.
